Reference: ChEMBL document CHEMBL1201862, “PubChem BioAssay data set” (2004)
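The compound was tested at five concentrations on cells cultured in 96-well plates, with a 48-hour exposure period. GI50 is the concentration that inhibits growth by half.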 The source made the active and inactive calls. Rule as the data show it: active = GI50 up to about 1.1 µM and inactive = higher.

Columns and labels:
Assay in all cases: NCI-60 cell line screen, 48 h
MCF7 = system: MCF7
Malme-3M = system: Malme-3M
MDA-MB-231 = system: MDA-MB-231
786-0 = system: 786-0
COLO 205 = system: COLO 205
MOLT-4 = system: MOLT-4
HCT-116 = system: HCT-116
RPMI-8226 = system: RPMI-8226
HCT-15 = system: HCT-15
SN12C = system: SN12C
HCC 2998 = system: HCC 2998
SK-MEL-2 = system: SK-MEL-2
OVCAR-5 = system: OVCAR-5
LOX IMVI = system: LOX IMVI
OVCAR-4 = system: OVCAR-4
PC-3 = system: PC-3
UACC-257 = system: UACC-257
NCI/ADR-RES = system: NCI/ADR-RES
A549 = system: A549
A498 = system: A498
MDA-MB-435 = system: MDA-MB-435
SF-295 = system: SF-295
SW-620 = system: SW-620
SNB-19 = system: SNB-19
NCI-H226 = system: NCI-H226
HT-29 = system: HT-29
KM12 = system: KM12
TK-10 = system: TK-10
HOP-62 = system: HOP-62
NCI-H460 = system: NCI-H460
CAKI-1 = system: CAKI-1
SK-OV-3 = system: SK-OV-3
SR = system: SR
SK-MEL-28 = system: SK-MEL-28
Hs-578T = system: Hs-578T
SF-539 = system: SF-539
UACC-62 = system: UACC-62
OVCAR-8 = system: OVCAR-8
T47D = system: T47D
K562 = system: K562
U-251 = system: U-251
M14 = system: M14
CCRF-CEM = system: CCRF-CEM
OVCAR-3 = system: OVCAR-3
UO-31 = system: UO-31
MDA-N = system: MDA-N
IGROV-1 = system: IGROV-1
SNB-75 = system: SNB-75
SF-268 = system: SF-268
EKVX = system: EKVX
NCI-H23 = system: NCI-H23
SK-MEL-5 = system: SK-MEL-5
RXF 393 = system: RXF 393
DU-145 = system: DU-145
ACHN = system: ACHN
BT-549 = system: BT-549
NCI-H522 = system: NCI-H522
HOP-92 = system: HOP-92

In the case of `Cc1nc(Cl)c(CBr)c(Cl)n1`, the GI50 (MCF7) is reported as 0.769 µM (active), the GI50 (Malme-3M) is reported as 0.838 µM (active) and the GI50 (MDA-MB-231) is reported as 1.95 µM (inactive). The GI50 (786-0) was 0.275 µM (active), the GI50 (COLO 205) was 1.66 µM (inactive) and the GI50 (MOLT-4) was 0.33 µM (active). For the same compound, the GI50 (HCT-116) was 0.285 µM (active), the GI50 (RPMI-8226) was 0.889 µM (active) and the GI50 (HCT-15) was 1.61 µM. The GI50 (SN12C) was 1.73 µM (inactive), the GI50 (HCC 2998) was 3.64 µM (inactive) and the GI50 (SK-MEL-2) was 1.87 µM (inactive). For the same compound, the GI50 (OVCAR-5) was 2.05 µM (inactive), the GI50 (LOX IMVI) was 0.585 µM (active) and the GI50 (OVCAR-4) was 1.83 µM (inactive). The GI50 (PC-3) was 1.63 µM (inactive), the GI50 (UACC-257) was 0.832 µM (active) and the GI50 (NCI/ADR-RES) was 2.41 µM (inactive). For the same compound, the GI50 (A549) was 6.3 µM (inactive), the GI50 (A498) was 11.7 µM (inactive) and the GI50 (MDA-MB-435) was 1.64 µM (inactive). The GI50 (SF-295) was 8.45 µM (inactive), the GI50 (SW-620) was 0.351 µM (active) and the GI50 (SNB-19) was 3.68 µM (inactive). For the same compound, the GI50 (NCI-H226) was 2.7 µM (inactive), the GI50 (HT-29) was 0.728 µM (active) and the GI50 (KM12) was 1.03 µM (active). The GI50 (TK-10) was 2.08 µM (inactive), the GI50 (HOP-62) was 1.91 µM (inactive) and the GI50 (NCI-H460) was 2.33 µM (inactive). For the same compound, the GI50 (CAKI-1) was 2.28 µM (inactive), the GI50 (SK-OV-3) was 3.84 µM (inactive) and the GI50 (SR) was 0.0813 µM (active). For the same compound, the GI50 (SK-MEL-28) was 1.49 µM (inactive), the GI50 (Hs-578T) was 1.49 µM (inactive) and the GI50 (SF-539) was 1.97 µM (inactive). The GI50 (UACC-62) was 1.38 µM (inactive), the GI50 (OVCAR-8) was 1.72 µM (inactive) and the GI50 (T47D) was 1.88 µM (inactive). For the same compound, the GI50 (K562) was 0.21 µM (active), the GI50 (U-251) was 2.04 µM (inactive) and the GI50 (M14) was 0.427 µM (active). The GI50 (CCRF-CEM) was 0.152 µM (active), the GI50 (OVCAR-3) was 0.596 µM (active) and the GI50 (UO-31) was 1.68 µM (inactive). The GI50 (MDA-N) was 1.44 µM (inactive), the GI50 (IGROV-1) was 1.72 µM (inactive) and the GI50 (SNB-75) was 1 µM (active). For the same compound, the GI50 (SF-268) was 2.69 µM (inactive), the GI50 (EKVX) was 5.87 µM (inactive) and the GI50 (NCI-H23) was 1.62 µM (inactive). For the same compound, the GI50 (SK-MEL-5) was 0.914 µM (active), the GI50 (RXF 393) was 2.11 µM (inactive) and the GI50 (DU-145) was 2.58 µM (inactive). The GI50 (ACHN) was 1.71 µM (inactive), the GI50 (BT-549) was 0.272 µM (active) and the GI50 (NCI-H522) was 0.518 µM (active).
For `OC[C@H]1NC[C@@H](O)[C@@H](O)[C@H]1O`, the GI50 (MCF7) was > 100 µM (inactive), the GI50 (Malme-3M) was > 100 µM (inactive) and the GI50 (MDA-MB-231) was > 100 µM (inactive). For the same compound, the GI50 (COLO 205) was > 100 µM (inactive), the GI50 (MOLT-4) was > 100 µM (inactive) and the GI50 (HCT-116) was > 100 µM (inactive). The GI50 (RPMI-8226) was > 100 µM (inactive), the GI50 (HCT-15) was greater than 100 µM and the GI50 (SN12C) was > 100 µM (inactive). For the same compound, the GI50 (HCC 2998) was > 100 µM (inactive), the GI50 (SK-MEL-2) was > 100 µM (inactive) and the GI50 (OVCAR-5) was > 100 µM (inactive). The GI50 (LOX IMVI) was > 100 µM (inactive), the GI50 (OVCAR-4) was > 100 µM (inactive) and the GI50 (PC-3) was > 100 µM (inactive). For the same compound, the GI50 (UACC-257) was > 100 µM (inactive), the GI50 (NCI/ADR-RES) was > 100 µM (inactive) and the GI50 (A498) was > 100 µM (inactive). The GI50 (MDA-MB-435) was > 100 µM (inactive), the GI50 (SF-295) was > 100 µM (inactive) and the GI50 (SW-620) was > 100 µM (inactive). The GI50 (SNB-19) was > 100 µM (inactive), the GI50 (NCI-H226) was > 100 µM (inactive) and the GI50 (HT-29) was > 100 µM (inactive). For the same compound, the GI50 (KM12) was > 100 µM (inactive), the GI50 (TK-10) was > 100 µM (inactive) and the GI50 (HOP-62) was > 100 µM (inactive). For the same compound, the GI50 (NCI-H460) was > 100 µM (inactive), the GI50 (CAKI-1) was > 100 µM (inactive) and the GI50 (SK-OV-3) was > 100 µM (inactive). The GI50 (SR) was > 100 µM (inactive), the GI50 (SK-MEL-28) was > 10 µM (inactive) and the GI50 (Hs-578T) was > 100 µM (inactive). For the same compound, the GI50 (UACC-62) was > 100 µM (inactive), the GI50 (OVCAR-8) was > 100 µM (inactive) and the GI50 (T47D) was > 100 µM (inactive). The GI50 (K562) was > 100 µM (inactive), the GI50 (U-251) was > 100 µM (inactive) and the GI50 (M14) was > 100 µM (inactive). The GI50 (HOP-92) was > 100 µM (inactive), the GI50 (CCRF-CEM) was > 100 µM (inactive) and the GI50 (OVCAR-3) was > 100 µM (inactive). For the same compound, the GI50 (UO-31) was > 100 µM (inactive), the GI50 (MDA-N) was > 100 µM (inactive) and the GI50 (IGROV-1) was > 100 µM (inactive). The GI50 (SNB-75) was 9.29 µM (inactive), the GI50 (NCI-H23) was > 100 µM (inactive) and the GI50 (SK-MEL-5) was > 100 µM (inactive). The GI50 (RXF 393) was > 100 µM (inactive), the GI50 (DU-145) was > 10 µM (inactive) and the GI50 (BT-549) was > 100 µM (inactive).
